# “Also recorded” adds a separate entry of the source. Peptide text beside a SMILES is read from it.
# Tests used:
# bovine brain calmodulin [1] = biological target: T1, bovine brain calmodulin (Bos taurus, UniProt P62157); test: stopped-flow measurement of kisom of calmodulin-binding peptides; conditions: changes in tryptophan fluorescence
# T1 construct: Complexes between calmodulin from bovine brain (1 μM, Sigma); purchased Sigma; host or cells: bovine brain (tissue-derived)
# Text: It has been shown by Torok and Trentham (1994) that smooth muscle MLCK-derived peptides bind to calmodulin with a biphasic kinetic according to the scheme: [drawing 1]
# in which P is the peptide, C is calmodulin, P-C is the first complex formed on association of P and C, which then undergoes a conformational isomerisation to P-C*.
# (§1) For a kinetic and thermodynamic characterisation of the binding of the peptides of the present invention to bovine brain calmodulin, we have measured the kinetic isomerisation, association, and dissociation constants from which dissociation constants can be derived.
# kisom constants have been measured by stopped-flow, detecting changes in tryptophan fluorescence for all the peptides except 3 (SEQ ID NO:4), in which the tryptophan is replaced by alanine.
# bovine brain calmodulin [2] = biological target: T1, bovine brain calmodulin; test: BIAcore surface plasmon resonance, kon and koff of calmodulin binding to biotinylated peptides; conditions: for koff / kon / increase in kon with respect to the wild-type peptide 1: BIAcore; for koff: read-out: koff (s^-1)^B; for kon: read-out: kon (s^-1 M^-1)^B
# Text: as §1
# koff =k-1·k-2 /(k+2 +k-2)
# Real-time interaction analysis by surface plasmon resonance on a BIAcore instrument (Jonsson et al., 1991) was used to determine kon and koff constants. Biotinylated peptides 1-17 were bound to commercially available streptavidin-coated microsensor chips (Pharmacia Biosensor), in order to achieve a surface capacity of 100-200 surface plasmon resonance units of calmodulin bound. Different concentrations of calmodulin (5, 10, 20, 50 and 100 nM in the order of FIG. 2) were injected and allowed to associate with the peptides. Regeneration of the surface was achieved by injection of 5 μl TBS+[…] which dissociates the calmodulin-peptide complex.
# calmodulin = calmodulin (Bos taurus, UniProt P62157); test: koff by competition experiments, native PAGE of fluorescein-labelled peptide/calmodulin complexes; assay type: binding, bovine; parameters: Complexes between calmodulin from bovine brain (1 μM, Sigma); purchased Sigma; host or cells: bovine brain (tissue-derived); conditions: for koff: competition with 30-fold excess unlabelled peptide, room temperature, gel buffer, read-out: koff (s^-1)^C; for dissociation from calmodulin in competition with excess unlabelled peptide, in words: FIG. 3
# Procedure: Complexes between calmodulin from bovine brain (1 μM, Sigma) and fluorescein-labelled sMLCK-derived peptides (as described in Table 1 (SEQ ID NOS:2-18)) were prepared in gel buffer (25% gel mix [4 g sucrose+1 mg bromophenol blue in water to give a 10 ml solution]+75% TBSC [50 mM TRIS pH 7.4, […]+50 μM CaCl2)] and run on a 15% native PAGE gel (5 ml 30% acrylamide-bisacrylamide solution+4.5 ml water+0.5 ml 3M Tris, pH 8.8, +1 μl 1M CaCl2 polymerised with 30 μl 25% ammonium persulphate and 9 μl TEMED) using 14.4 g/l glycine+3 g/l Tris-base+0.1 mM CaCl2 as running buffer. Peptides were labelled either with iodoacetamido fluorescein (Molecular Probes) or with iodoacetamido-LC-biotin (Pierce) essentially as previously described by Neri et al., (1995). In these conditions, the fluorescence of the positively-charged labelled peptides can be detected only if they form a stable complex with calmodulin.
# In order to obtain an independent experimental confirmation if the BIAcore results, koff constants for peptides 1-17 towards calmodulin were determined by competition experiments. 30 nM fluorescein-labelled peptide/calmodulin complexes in gel buffer were competed at room temperature for different times with 30-fold excess of unlabelled peptide. The resulting mixtures were run on native PAGE gels and imaged by LUANA as described above. The bands in the image obtained were integrated using the LUANA software (Neri et al., 1996) and the corresponding intersities plotted versus time and fitted with a single exponential, from which koff constants were derived. In order to normalise band intensities against pipetting errors, the samples contained 6 nM free fluorescein which ran with the front. The fluorescein bands were integrated and used to normalise the calmodulin/fluorescent peptide complex band intensity. The results of competitions for peptides 1, 2, 3, 6, 9, and 14 are shown in this FIG. 3. Incubation time in minutes is indicated under the lanes.
# The volumes of the bands were plotted versus competition time and fitted to a single exponential, from which koff values were derived.
# The fastest competitions (peptides 1-4, 9 and 13, SEQ ID NOS:2-5,10, and 14) were over by the time the calmodulin/fluorescent peptide complex entered the gel (approximately 5-10 minutes from pipetting a molar excess of unlabelled peptide; FIG. 3), from which a condition on the off-rate constant koff >1×10^-3 s^-1 was derived. Even for these fast off-rates, complexes can be detected by native polyacrylamide gel electrophoresis because of the well known gel "cage effect" (Fried and Crothers, 1981; Garner and Revzin, 1981).
smiles,measurement,setting,value
CC[C@H](C)[C@H](NC(=O)[C@H](Cc1ccccc1)NC(=O)[C@H](CC(N)=O)NC(=O)[C@H](CCCCN)NC(=O)[C@H](CCCCN)NC(=O)[C@H](Cc1c[nH]c2ccccc12)NC(=O)[C@H](CCCNC(=N)N)NC(=O)[C@H](C)NC(=O)[C@H](C)NC(=O)[C@H](C)NC(=O)[C@@H](N)CS)C(=O)N[C@@H](C)C(=O)N[C@H](C(=O)N[C@@H](C)C(=O)N[C@@H](C)C(=O)N[C@@H](C)C(=O)N[C@@H](CC(N)=O)C(=O)N[C@@H](CCCNC(=N)N)C(=O)N[C@@H](Cc1ccccc1)C(=O)N[C@@H](CCCCN)C(=O)N[C@@H](CCCCN)C(=O)N[C@H](C(=O)N[C@@H](CO)C(N)=O)[C@@H](C)CC)C(C)C [Peptide 10] (H-CAAARWKKNFIAVAAANRFKKIS-NH2; N-terminus assumed),kisom. (s^-1)^A,bovine brain calmodulin [1],2.1 (11.0) × 10^-1 s^-1
same,"improvement of koff with respect to wild type, in words",bovine brain calmodulin [2],largest improvements
same,koff,bovine brain calmodulin [2],0.0001 s⁻¹
same,kon,bovine brain calmodulin [2],1.1e+06 M⁻¹ s⁻¹
same,"improvement in Kd / affinity for calmodulin over the wild type peptide, in words",bovine brain calmodulin [2]; Table 1,greatest improvement in affinity; also recorded: greatest improvement in Kd
same,koff,calmodulin,7.9e-05 s⁻¹
CC[C@H](C)[C@H](NC(=O)[C@H](Cc1ccccc1)NC(=O)[C@H](CC(N)=O)NC(=O)[C@H](CCCCN)NC(=O)[C@H](C)NC(=O)[C@H](Cc1c[nH]c2ccccc12)NC(=O)[C@H](CCCNC(=N)N)NC(=O)[C@H](C)NC(=O)[C@H](C)NC(=O)[C@H](C)NC(=O)[C@@H](N)CS)C(=O)N[C@@H](C)C(=O)N[C@H](C(=O)N[C@@H](CO)C(=O)N[C@@H](C)C(=O)N[C@@H](C)C(=O)N[C@@H](CC(N)=O)C(=O)N[C@@H](CCCNC(=N)N)C(=O)N[C@@H](Cc1ccccc1)C(=O)N[C@@H](CCCCN)C(=O)N[C@@H](CCCCN)C(=O)N[C@H](C(=O)N[C@@H](CO)C(N)=O)[C@@H](C)CC)C(C)C [Peptide 4] (H-CAAARWAKNFIAVSAANRFKKIS-NH2; N-terminus assumed),kisom. (s^-1)^A,bovine brain calmodulin [1],2.4 (10.6) × 10^-1 s^-1
same,koff,bovine brain calmodulin [2],0.003 s⁻¹
same,kon,bovine brain calmodulin [2],1.3e+06 M⁻¹ s⁻¹
same,koff,calmodulin,≥ 0.001 s⁻¹
CC[C@H](C)[C@H](NC(=O)[C@H](Cc1ccccc1)NC(=O)[C@H](CC(N)=O)NC(=O)[C@H](CCCCN)NC(=O)[C@H](CCCCN)NC(=O)[C@H](Cc1c[nH]c2ccccc12)NC(=O)[C@H](C)NC(=O)[C@H](C)NC(=O)[C@H](C)NC(=O)[C@H](C)NC(=O)[C@@H](N)CS)C(=O)N[C@@H](C)C(=O)N[C@H](C(=O)N[C@@H](CO)C(=O)N[C@@H](C)C(=O)N[C@@H](C)C(=O)N[C@@H](CC(N)=O)C(=O)N[C@@H](CCCNC(=N)N)C(=O)N[C@@H](Cc1ccccc1)C(=O)N[C@@H](CCCCN)C(=O)N[C@@H](CCCCN)C(=O)N[C@H](C(=O)N[C@@H](CO)C(N)=O)[C@@H](C)CC)C(C)C [Peptide 2] (H-CAAAAWKKNFIAVSAANRFKKIS-NH2; N-terminus assumed),kisom. (s^-1)^A,bovine brain calmodulin [1],1.2 (10.5) × 10^-1 s^-1
same,increase in kon with respect to the wild-type peptide 1,bovine brain calmodulin [2],4-5 fold
same,koff,bovine brain calmodulin [2],0.0015 s⁻¹
same,kon,bovine brain calmodulin [2],3e+06 M⁻¹ s⁻¹
same,"dissociation from calmodulin in competition with excess unlabelled peptide, in words",calmodulin,dissociated from calmodulin in a few minutes
same,koff,calmodulin,≥ 0.001 s⁻¹
"CC[C@H](C)[C@H](NC(=O)[C@H](Cc1ccccc1)NC(=O)[C@H](CC(N)=O)NC(=O)[C@H](CCCCN)NC(=O)[C@H](CCCCN)NC(=O)[C@H](Cc1c[nH]c2ccccc12)NC(=O)[C@H](CCCNC(=N)N)NC(=O)[C@H](C)NC(=O)[C@H](C)NC(=O)[C@H](C)NC(=O)[C@@H](N)CS)C(=O)N[C@@H](C)C(=O)N[C@H](C(=O)N[C@@H](CO)C(=O)N[C@@H](C)C(=O)N[C@@H](C)C(=O)N[C@@H](CC(N)=O)C(=O)N[C@@H](CCCNC(=N)N)C(=O)N[C@@H](Cc1ccccc1)C(=O)N[C@@H](CCCCN)C(=O)N[C@@H](CCCCN)C(=O)N[C@H](C(=O)N[C@@H](CO)C(N)=O)[C@@H](C)CC)C(C)C [Peptide 1, CAAA-RWKKNFIAVSAANRFKKIS-CONH2] (H-CAAARWKKNFIAVSAANRFKKIS-NH2; N-terminus assumed)",kisom. (s^-1)^A,bovine brain calmodulin [1],1.9 (10.7) × 10^-1 s^-1
same,koff,bovine brain calmodulin [2],0.0024 s⁻¹
same,kon,bovine brain calmodulin [2],650000 M⁻¹ s⁻¹
same,"dissociation from calmodulin in competition with excess unlabelled peptide, in words",calmodulin,dissociated from calmodulin in a few minutes
same,koff,calmodulin,≥ 0.001 s⁻¹
CC[C@H](C)[C@H](NC(=O)[C@H](Cc1ccccc1)NC(=O)[C@H](CC(N)=O)NC(=O)[C@H](C)NC(=O)[C@H](CCCCN)NC(=O)[C@H](Cc1c[nH]c2ccccc12)NC(=O)[C@H](CCCNC(=N)N)NC(=O)[C@H](C)NC(=O)[C@H](C)NC(=O)[C@H](C)NC(=O)[C@@H](N)CS)C(=O)N[C@@H](C)C(=O)N[C@H](C(=O)N[C@@H](CO)C(=O)N[C@@H](C)C(=O)N[C@@H](C)C(=O)N[C@@H](CC(N)=O)C(=O)N[C@@H](CCCNC(=N)N)C(=O)N[C@@H](Cc1ccccc1)C(=O)N[C@@H](CCCCN)C(=O)N[C@@H](CCCCN)C(=O)N[C@H](C(=O)N[C@@H](CO)C(N)=O)[C@@H](C)CC)C(C)C [Peptide 5] (H-CAAARWKANFIAVSAANRFKKIS-NH2; N-terminus assumed),kisom. (s^-1)^A,bovine brain calmodulin [1],7.4 (11.0) × 10^-2 s^-1
same,koff,bovine brain calmodulin [2],0.00029 s⁻¹
same,kon,bovine brain calmodulin [2],1.1e+06 M⁻¹ s⁻¹
same,koff,calmodulin,0.00021 s⁻¹
CC[C@H](C)[C@H](NC(=O)[C@H](Cc1ccccc1)NC(=O)[C@H](CC(N)=O)NC(=O)[C@H](CCCCN)NC(=O)[C@H](CCCCN)NC(=O)[C@H](Cc1c[nH]c2ccccc12)NC(=O)[C@H](CCCNC(=N)N)NC(=O)[C@H](C)NC(=O)[C@H](C)NC(=O)[C@H](C)NC(=O)[C@@H](N)CS)C(=O)N[C@@H](C)C(=O)N[C@H](C(=O)N[C@@H](CO)C(=O)N[C@@H](C)C(=O)N[C@@H](C)C(=O)N[C@@H](C)C(=O)N[C@@H](CCCNC(=N)N)C(=O)N[C@@H](Cc1ccccc1)C(=O)N[C@@H](CCCCN)C(=O)N[C@@H](CCCCN)C(=O)N[C@H](C(=O)N[C@@H](CO)C(N)=O)[C@@H](C)CC)C(C)C [Peptide 11] (H-CAAARWKKNFIAVSAAARFKKIS-NH2; N-terminus assumed),kisom. (s^-1)^A,bovine brain calmodulin [1],2.8 (10.6) × 10^-2 s^-1
same,koff,bovine brain calmodulin [2],0.00035 s⁻¹
same,kon,bovine brain calmodulin [2],940000 M⁻¹ s⁻¹
same,koff,calmodulin,0.00049 s⁻¹
CC[C@H](C)[C@H](NC(=O)[C@H](Cc1ccccc1)NC(=O)[C@H](CC(N)=O)NC(=O)[C@H](CCCCN)NC(=O)[C@H](CCCCN)NC(=O)[C@H](C)NC(=O)[C@H](CCCNC(=N)N)NC(=O)[C@H](C)NC(=O)[C@H](C)NC(=O)[C@H](C)NC(=O)[C@@H](N)CS)C(=O)N[C@@H](C)C(=O)N[C@H](C(=O)N[C@@H](CO)C(=O)N[C@@H](C)C(=O)N[C@@H](C)C(=O)N[C@@H](CC(N)=O)C(=O)N[C@@H](CCCNC(=N)N)C(=O)N[C@@H](Cc1ccccc1)C(=O)N[C@@H](CCCCN)C(=O)N[C@@H](CCCCN)C(=O)N[C@H](C(=O)N[C@@H](CO)C(N)=O)[C@@H](C)CC)C(C)C [Peptide 3] (H-CAAARAKKNFIAVSAANRFKKIS-NH2; N-terminus assumed),increase in kon with respect to the wild-type peptide 1,bovine brain calmodulin [2],4-5 fold
same,koff,bovine brain calmodulin [2],0.005 s⁻¹
same,kon,bovine brain calmodulin [2],3.2e+06 M⁻¹ s⁻¹
same,"dissociation from calmodulin in competition with excess unlabelled peptide, in words",calmodulin,dissociated from calmodulin in a few minutes
same,koff,calmodulin,≥ 0.001 s⁻¹
